Data on 17 molecules can be found in PubChem BioAssay AID276 (DTP/NCI, 2004).

Where “and” joins values, the source holds several entries; their conditions need not be identical. Identical values can stand only once. Toxic doses and inconclusive results are not listed. Residues, ends and D or L forms follow the SMILES beside them. *: point of attachment. Trt = c1ccc(C(c2ccccc2)(c2ccccc2)*)cc1; Cbz = O=C(OCc1ccccc1)*; Bn = c1ccc(C*)cc1; βAla = NCCC(=O)O

For the assay, the system named is B6C3F1 mice, Lewis lung carcinoma iv, survival T/C. In words: NCI In Vivo Anticancer Drug Screen. Data for tumor model Lewis Lung Carcinoma (intravenous) in B6C3F1 mice. The note with it: endpoint: median survival time, schedule: Q01DX009 (ip), higher = longer survival. Put shortly:
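Transplantable tumor in mice; compound treated vs vehicle controls; read-out survival; value = treated/control (T/C).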

Setting [1] is: dose: 12.5 mg/kg/injection, vehicle: water.
Where [2] appears, read: dose: 25.0 mg/kg/injection, vehicle: water.
Setting [3] is: dose: 50.0 mg/kg/injection, vehicle: water.
Where [4] appears, read: dose: 100.0 mg/kg/injection, vehicle: Klucel (hydroxypropylcellulose) (HPC).
[5] abbreviates: dose: 200.0 mg/kg/injection, vehicle: Klucel (hydroxypropylcellulose) (HPC).
Setting [6] is: dose: 400.0 mg/kg/injection, vehicle: Klucel (hydroxypropylcellulose) (HPC).
[7] abbreviates: dose: 12.5 mg/kg/injection, vehicle: saline with Tween-80.
The mark [8] stands for this setting: dose: 25.0 mg/kg/injection, vehicle: saline with Tween-80.
[9] abbreviates: dose: 50.0 mg/kg/injection, vehicle: saline with Tween-80.
Where [10] appears, read: dose: 100.0 mg/kg/injection, vehicle: saline with Tween-80.
Setting [11] is: dose: 200.0 mg/kg/injection, vehicle: saline with Tween-80.
Where [12] appears, read: dose: 400.0 mg/kg/injection, vehicle: saline with Tween-80.
Where [13] appears, read: dose: 6.25 mg/kg/injection, vehicle: saline.
[14] abbreviates: dose: 12.5 mg/kg/injection, vehicle: saline.
Setting [15] is: dose: 0.25 mg/kg/injection, vehicle: saline.
The mark [16] stands for this setting: dose: 0.5 mg/kg/injection, vehicle: saline.
Where [17] appears, read: dose: 100.0 mg/kg/injection, vehicle: water.
The mark [18] stands for this setting: dose: 200.0 mg/kg/injection, vehicle: water.
The mark [19] stands for this setting: dose: 400.0 mg/kg/injection, vehicle: water.
Setting [20] is: dose: 6.25 mg/kg/injection, vehicle: saline with Tween-80.

As for `NCCCC(N)(C(=O)O)C(F)F` (stereo unspecified), the T/C is, setting by setting: (dose: 50.0 mg/kg/injection, vehicle: distilled water + alcohol) 100 % of control; (dose: 100.0 mg/kg/injection, vehicle: distilled water + alcohol) 104 % of control; (dose: 200.0 mg/kg/injection, vehicle: distilled water + alcohol) 105 % of control; (dose: 400.0 mg/kg/injection, vehicle: distilled water + alcohol) 103 % of control; (dose: 800.0 mg/kg/injection, vehicle: distilled water + alcohol) 96 % of control.

`Cn1c(=O)[nH]c2nncnc2c1=O`: the T/C (dose: 3.12 mg/kg/injection, vehicle: water) was 97 % of control; the T/C (dose: 6.25 mg/kg/injection, vehicle: water) is 105 % of control; the T/C under setting [1] was 102 % of control; the T/C under setting [2] is 94 % of control; the T/C under setting [3] was 90 % of control.

Regarding `CC12CC(C(=O)O)C3(O)CC(C)(C1)CC(C)(C2)C3` (stereo unspecified) (tested in a mixture with another compound), the T/C was 124 % of control under setting [4], 114 % of control under setting [5] and 98 % of control under setting [6].

As to `O=NN(CCCl)C(=O)NC1[C@H](O)CCC[C@@H]1O` (stereo partly specified), the T/C runs as follows: (dose: 0.32 mg/kg/injection, vehicle: saline) 96 % of control; (dose: 0.63 mg/kg/injection, vehicle: saline) 111 % of control; (dose: 1.25 mg/kg/injection, vehicle: saline) 103 % of control and 116 % of control; (dose: 5.0 mg/kg/injection, vehicle: saline) 163 % of control and 173 % of control; (dose: 10.0 mg/kg/injection, vehicle: saline) 98 % of control and 118 % of control.

`CCOC(=O)C1=C(C#N)C2(CCC(OCc3ccccc3)CC2)C(=O)O1` (stereo unspecified): the T/C by setting is: (dose: 12.5 mg/kg/injection, vehicle: suspension in saline) 94 % of control; (dose: 25.0 mg/kg/injection, vehicle: suspension in saline) 94 % of control; (dose: 50.0 mg/kg/injection, vehicle: suspension in saline) 92 % of control; (dose: 100.0 mg/kg/injection, vehicle: suspension in saline) 95 % of control; (dose: 200.0 mg/kg/injection, vehicle: suspension in saline) 102 % of control.

As to `CC(Oc1ccccc1-c1ccccc1)C(=O)N(C)C` (stereo unspecified), the T/C is 106 % of control under setting [7]; 110 % of control under setting [8]; 107 % of control under setting [9]; 96 % of control under setting [10]; 101 % of control under setting [11]; 100 % of control under setting [12].

Turning to `CC1(C)CC2(C)OC2C2(C1)N=NC(=Nc1ccccc1)O2` (stereo unspecified), the T/C reads like this: under setting [8], 97 % of control; under setting [9], 100 % of control; under setting [10], 106 % of control.

For the molecule `COC(=O)[C@@H]1c2cc3c(c(O)c2[C@@H](OC)C[C@@]1(C)O)C(=O)c1c(O)cc2c(c1C3=O)OC1O[C@@]2(C)[C@H](O)[C@@H](N(C)C)[C@@H]1O`, the T/C (dose: 1.56 mg/kg/injection, vehicle: saline) was 99 % of control; the T/C (dose: 3.13 mg/kg/injection, vehicle: saline) is 112 % of control; the T/C under setting [13] is 101 % of control; the T/C under setting [14] is 97 % of control.

For `COC(=O)C[C@](O)(CCC(C)(C)O)C(=O)O[C@@H]1C(OC)=C[C@]23CCCN2CCc2cc4c(cc2[C@H]13)OCO4`, the T/C runs as follows: under setting [15], 98 % of control and 104 % of control; under setting [16], 103 % of control and 106 % of control; (dose: 1.0 mg/kg/injection, vehicle: saline) 94 % of control and 102 % of control.

On to `OC1OC2COC(c3ccccc3)OC2C(O)C1O` (stereo unspecified), for which the T/C was 101 % of control under setting [2]; 99 % of control under setting [3]; 98 % of control under setting [17]; 101 % of control under setting [18]; 99 % of control under setting [19]; 93 % of control (dose: 800.0 mg/kg/injection, vehicle: water).

Take `C/C=C1\C[C@@H]2C(OC)Nc3cc(O)c(OC)cc3C(=O)N2C1` (stereo partly specified): the T/C by setting is: (dose: 0.03 mg/kg/injection, vehicle: saline) 100 % of control; (dose: 0.03 mg/kg/injection, vehicle: suspension in saline) 92 % of control; (dose: 0.06 mg/kg/injection, vehicle: saline) 110 % of control; (dose: 0.06 mg/kg/injection, vehicle: suspension in saline) 96 % of control; (dose: 0.12 mg/kg/injection, vehicle: saline) 101 % of control; (dose: 0.12 mg/kg/injection, vehicle: suspension in saline) 97 % of control. The T/C is 108 % of control under setting [15]; 104 % of control (dose: 0.25 mg/kg/injection, vehicle: suspension in saline); 104 % of control under setting [16]; 105 % of control (dose: 0.5 mg/kg/injection, vehicle: suspension in saline).

Consider `CN(C)CCOc1ccc2c(c1)C/C(=C/c1ncc([N+](=O)[O-])n1C)C2=O`, for which the T/C under setting [20] is 102 % of control, the T/C under setting [7] is 88 % of control, the T/C under setting [8] was 104 % of control and the T/C under setting [9] is 100 % of control.

For `C1OCN2CSCC12` (stereo unspecified), the T/C is 103 % of control under setting [7]; 103 % of control under setting [8]; 102 % of control under setting [9]; 98 % of control under setting [10]; 96 % of control under setting [11]; 89 % of control under setting [12].

`CC(=O)N(C)c1ccc(Nc2cc(C)[nH]c3ccc4ncnc4c23)cc1`: the T/C is, setting by setting: under setting [13], 100 % of control; under setting [14], 100 % of control; (dose: 25.0 mg/kg/injection, vehicle: saline) 105 % of control; (dose: 50.0 mg/kg/injection, vehicle: saline) 102 % of control.

Consider `COC(=O)C(CSC(c1ccccc1)(c1ccccc1)c1ccccc1)NC(=O)C(CSCc1ccccc1)NC(=O)CCNC(=O)OCc1ccccc1` (stereo unspecified) ({Cbz-βAla}-Cys(Bn)-Cys(Trt)-OMe; configuration not given here), for which the T/C is 93 % of control (dose: 50.0 mg/kg/injection, vehicle: Klucel (hydroxypropylcellulose) (HPC)); 98 % of control under setting [4]; 97 % of control under setting [5]; 100 % of control under setting [6]; 98 % of control (dose: 800.0 mg/kg/injection, vehicle: Klucel (hydroxypropylcellulose) (HPC)).

For the molecule `Cc1noc(N)c1N`, the T/C under setting [1] was 101 % of control; the T/C under setting [2] was 95 % of control; the T/C under setting [3] is 102 % of control; the T/C under setting [17] is 92 % of control; the T/C under setting [18] was 98 % of control; the T/C under setting [19] was 106 % of control.

Take `O=C(O[Si](Cc1ccccc1)(Cc1ccccc1)Cc1ccccc1)N(CCCl)CCCl`: the T/C by setting is: under setting [20], 100 % of control; under setting [7], 108 % of control; under setting [8], 90 % of control and 100 % of control; under setting [9], 103 % of control; under setting [10], 108 % of control and 123 % of control; under setting [11], 124 % of control.
